Measurements reported in patent US11744825B2, “Methods of treating hypersensitive cough or itching using ion channel inhibitory compounds” (AFASCI, Inc., priority 2018, dated 2023).
“And” between values parts separate entries of the source, which are not always exact repeats. Equal entries are not always repeated. “Also recorded” adds a separate entry of the source.

Experiments:
IK in rat DRG = assay: Inhibition of IK current in dissociated rat DRG neurons; assay type: cell-based; settings: for IC50: rat DRG neurons, read-out: Inhibition of Currents in rat DRG: IK IC50; for K/T: ratio of IK IC50 to T-type IC50
Source text: (§1) A representative panel of AFA/EX compounds was investigated on a variety of recombinant human ion channels expressed in mammalian cells and on native ion channels in dissociated rat dorsal root ganglion (DRG) neurons. […] Thus, this panel of compounds was next investigated on their effects on itching scratching behavior in two well-established itching models in mice.

[1] = tested on: chloroquine-induced itching; assay: Chloroquine-induced itching (neck model of itch) in mice; assay type: in vivo, mouse; settings: 30 mg/kg i.p., 30 min before pruritogen
Description: (§2) Neck model of itch was employed. Mice (C57BL/6, male, 3-4 months old) were shaved at the nape of the neck 2-3 days before experiments. On the day of behavioral testing mice were individually placed in small plastic chambers (12 cm L×9.5 W×12 H) that inserted into an ordinary homecage at least 30 min for habituation and recorded baseline of behavior using a video camera and a piezoelectric floor sensor operated by a validated homecage behavioral monitory system, SmartCage, which can monitor multiple mouse scratching behaviors simultaneously. Treatment with an individual test article (10 representative AFA-compounds, each at 30 mg/kg) or vehicle (0.5% hydroxyl propyl cellulose aqueous solution containing 2% DMSO) were intraperitoneally (i.p.) injected 30 min prior to itching induction. Mice were given an intradermal injection of 50 μl of a pruritogen, chloroquine or histamine into the nape of the neck. Immediately after the injection, mice were returned to their chambers and were continually recorded by the piezoelectric floor sensor for 30 min. Human manual scoring of itching scratch behavior in real-time and confirmed by video and/or piezoelectric recordings offline. The itch behavior was quantified by counting the number of scratches in a blinded to the treatment manner. A scratch was counted when a mouse lifted its hindpaw to scratch the shaved region and returned the paw to the floor or to the mouth for licking. The piezoelectric signals with a larger and regular waveform distinguished from normal homecage activity were analyzed off-line to objectively quantifying scratch episodes and durations.

hNav1.5 = hNav1.5 (Homo sapiens, UniProt Q14524); assay: Recombinant hNav1.5 channel expressed in mammalian cells; assay type: cell-based
Source text: as §1

hiPSC INa = hiPSC INa current; assay type: cell-based, human
[2] = tested on: histamine-induced itching; assay: Histamine-induced itching (neck model of itch) in mice; assay type: in vivo, mouse; settings: 30 mg/kg i.p., 30 min before pruritogen
Description: as §2

[3] = molecular target: T1, hERG potassium (K+) channels (Homo sapiens, UniProt Q12809); assay: hERG potassium channel inhibition; assay type: cell-based
T1 construct: expressed in transfected cells
T1 sequence (Q12809 whole entry): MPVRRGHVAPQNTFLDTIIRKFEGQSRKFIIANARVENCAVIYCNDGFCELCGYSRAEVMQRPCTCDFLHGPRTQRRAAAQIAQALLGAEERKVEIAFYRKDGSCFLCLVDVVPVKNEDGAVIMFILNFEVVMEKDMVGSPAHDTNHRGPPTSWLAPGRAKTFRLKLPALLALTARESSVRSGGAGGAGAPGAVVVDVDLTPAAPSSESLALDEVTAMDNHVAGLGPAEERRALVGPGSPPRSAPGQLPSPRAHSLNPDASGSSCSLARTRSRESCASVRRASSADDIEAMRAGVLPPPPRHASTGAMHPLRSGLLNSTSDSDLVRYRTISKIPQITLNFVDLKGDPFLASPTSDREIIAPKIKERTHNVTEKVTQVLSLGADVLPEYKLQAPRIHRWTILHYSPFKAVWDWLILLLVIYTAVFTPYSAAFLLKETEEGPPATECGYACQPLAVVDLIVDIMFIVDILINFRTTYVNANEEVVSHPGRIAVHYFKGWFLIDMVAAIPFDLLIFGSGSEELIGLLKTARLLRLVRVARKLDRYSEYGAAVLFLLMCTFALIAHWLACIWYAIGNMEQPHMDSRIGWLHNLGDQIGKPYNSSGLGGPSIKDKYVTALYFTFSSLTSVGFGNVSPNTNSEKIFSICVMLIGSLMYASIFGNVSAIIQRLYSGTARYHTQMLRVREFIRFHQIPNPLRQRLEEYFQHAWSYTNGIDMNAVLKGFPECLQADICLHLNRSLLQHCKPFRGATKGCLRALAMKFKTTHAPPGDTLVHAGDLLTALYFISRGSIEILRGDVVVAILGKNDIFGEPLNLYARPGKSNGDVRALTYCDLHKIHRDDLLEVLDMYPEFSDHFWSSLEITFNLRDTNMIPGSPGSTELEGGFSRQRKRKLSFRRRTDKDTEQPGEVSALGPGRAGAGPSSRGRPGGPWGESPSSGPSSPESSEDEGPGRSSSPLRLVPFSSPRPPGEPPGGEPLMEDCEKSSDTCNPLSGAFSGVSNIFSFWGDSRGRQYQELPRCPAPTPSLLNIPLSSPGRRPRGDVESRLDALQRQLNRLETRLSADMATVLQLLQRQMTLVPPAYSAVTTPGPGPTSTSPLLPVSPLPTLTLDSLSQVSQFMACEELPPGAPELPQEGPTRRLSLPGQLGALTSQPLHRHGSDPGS
Source text: as §1

hCav2.2 = hCav2.2 (Homo sapiens, UniProt Q00975); assay: Recombinant hCav2.2 channel expressed in mammalian cells; assay type: cell-based; settings: for IC50: recombinant human channel
Source text: as §1

hCav3.2 Channel = molecular target: T2, hCav3.2 Channel (Homo sapiens, UniProt O95180); assay: Recombinant hCav3.2 channel expressed in mammalian cells; assay type: cell-based; set-up: hCav3.2 Channel % Use Dep. (use dependent inhibition): concentration or dose not given beside the values
T2 construct: expressed in transfected cells
T2 sequence (O95180 whole entry): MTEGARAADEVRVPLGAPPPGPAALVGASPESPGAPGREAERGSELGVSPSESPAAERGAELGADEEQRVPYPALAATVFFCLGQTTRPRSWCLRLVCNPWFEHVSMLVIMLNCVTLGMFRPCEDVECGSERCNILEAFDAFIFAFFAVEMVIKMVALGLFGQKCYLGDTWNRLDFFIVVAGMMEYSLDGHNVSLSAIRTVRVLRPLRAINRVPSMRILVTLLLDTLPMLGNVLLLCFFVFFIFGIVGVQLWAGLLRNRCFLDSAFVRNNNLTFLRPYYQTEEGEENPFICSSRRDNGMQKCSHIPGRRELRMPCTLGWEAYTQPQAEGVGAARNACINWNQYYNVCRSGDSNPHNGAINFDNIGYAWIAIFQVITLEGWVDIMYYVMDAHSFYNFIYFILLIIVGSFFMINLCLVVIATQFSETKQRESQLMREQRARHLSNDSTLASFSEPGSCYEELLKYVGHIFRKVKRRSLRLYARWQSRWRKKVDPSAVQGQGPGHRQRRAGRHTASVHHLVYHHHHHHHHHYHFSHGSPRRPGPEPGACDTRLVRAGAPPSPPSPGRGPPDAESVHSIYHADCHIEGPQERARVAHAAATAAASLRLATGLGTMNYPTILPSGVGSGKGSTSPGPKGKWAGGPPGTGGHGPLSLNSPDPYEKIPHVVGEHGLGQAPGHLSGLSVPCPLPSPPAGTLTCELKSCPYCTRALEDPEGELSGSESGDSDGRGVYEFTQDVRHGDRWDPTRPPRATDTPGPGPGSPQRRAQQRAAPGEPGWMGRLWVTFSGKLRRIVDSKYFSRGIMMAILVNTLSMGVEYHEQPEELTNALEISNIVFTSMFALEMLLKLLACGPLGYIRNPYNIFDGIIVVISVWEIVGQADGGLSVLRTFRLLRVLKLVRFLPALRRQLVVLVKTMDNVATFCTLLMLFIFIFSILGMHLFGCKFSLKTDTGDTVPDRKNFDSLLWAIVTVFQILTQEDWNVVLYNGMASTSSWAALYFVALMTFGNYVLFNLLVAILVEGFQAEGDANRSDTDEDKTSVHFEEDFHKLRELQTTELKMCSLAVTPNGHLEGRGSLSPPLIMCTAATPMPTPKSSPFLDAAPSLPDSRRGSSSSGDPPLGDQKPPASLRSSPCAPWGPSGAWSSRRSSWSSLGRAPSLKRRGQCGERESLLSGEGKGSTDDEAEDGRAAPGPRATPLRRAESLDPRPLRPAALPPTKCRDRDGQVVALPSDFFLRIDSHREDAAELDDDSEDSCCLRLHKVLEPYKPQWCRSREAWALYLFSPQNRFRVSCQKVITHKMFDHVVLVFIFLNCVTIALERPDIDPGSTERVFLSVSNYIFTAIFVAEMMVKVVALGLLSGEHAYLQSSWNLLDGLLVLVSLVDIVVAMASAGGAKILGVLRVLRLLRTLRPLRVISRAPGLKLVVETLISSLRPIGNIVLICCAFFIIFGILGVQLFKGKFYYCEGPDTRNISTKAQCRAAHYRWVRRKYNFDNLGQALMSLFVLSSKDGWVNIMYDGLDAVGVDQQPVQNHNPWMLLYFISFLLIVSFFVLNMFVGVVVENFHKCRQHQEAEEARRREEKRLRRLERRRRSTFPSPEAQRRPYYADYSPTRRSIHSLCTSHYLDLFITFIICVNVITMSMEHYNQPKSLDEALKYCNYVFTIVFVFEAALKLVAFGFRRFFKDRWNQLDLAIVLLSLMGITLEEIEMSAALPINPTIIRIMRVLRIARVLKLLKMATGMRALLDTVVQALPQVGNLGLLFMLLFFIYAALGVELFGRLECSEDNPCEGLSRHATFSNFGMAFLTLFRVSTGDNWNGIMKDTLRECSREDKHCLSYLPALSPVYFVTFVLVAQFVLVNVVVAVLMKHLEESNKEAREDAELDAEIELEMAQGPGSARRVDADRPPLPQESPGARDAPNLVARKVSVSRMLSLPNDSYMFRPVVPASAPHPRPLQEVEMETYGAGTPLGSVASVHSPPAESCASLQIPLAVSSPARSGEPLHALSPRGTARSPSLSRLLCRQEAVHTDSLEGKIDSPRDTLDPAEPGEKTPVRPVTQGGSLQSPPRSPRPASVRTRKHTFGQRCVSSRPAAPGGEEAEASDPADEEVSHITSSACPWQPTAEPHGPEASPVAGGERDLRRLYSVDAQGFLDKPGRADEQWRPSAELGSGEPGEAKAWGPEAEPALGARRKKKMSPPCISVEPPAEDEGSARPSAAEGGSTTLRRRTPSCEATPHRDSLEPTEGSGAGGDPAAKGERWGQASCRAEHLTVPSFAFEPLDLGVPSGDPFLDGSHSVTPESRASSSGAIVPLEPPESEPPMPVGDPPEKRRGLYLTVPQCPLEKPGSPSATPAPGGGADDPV
Source text: as §1

INa in rat DRG = assay: Inhibition of INa current in dissociated rat DRG neurons; assay type: cell-based; settings: for IC50: rat DRG neurons, read-out: Inhibition of Currents in rat DRG: INa IC50; for Na/T: ratio of INa IC50 to T-type IC50
Source text: as §1

T current in rat DRG = molecular target: T3, T current in rat DRG (Rattus norvegicus, UniProt Q9EQ60); assay: Inhibition of T current in dissociated rat DRG neurons; assay type: cell-based; settings: read-out: Inhibition of Currents in rat DRG: T IC50
T3 construct: native ion channels in dissociated rat dorsal root ganglion (DRG) neurons; from tissue; host or cells: dissociated rat dorsal root ganglion neurons
Source text: as §1

[4] = tested on: citric acid-induced cough; assay: Citric acid-induced cough in naive, conscious guinea pigs; assay type: in vivo, guinea pig; settings: for reduction of the number of cough events: guinea pig
Description: Guinea pigs (male, 280 g body weight, Hartley Crl:HA, Charles River) were maintained in temperature 21±2° C., humidity 55±10%, 12 hours on-12 hours off light cycle, with food and water ad libitum for at least 1 week before testing. Cough was induced with citric acid aerosol inhalation and cough assessment by human manual score (Gallico, Borghi et al. 1994). Individual animals were placed in a 4 L plexiglas observation chambers continuously filled with 17.5% citric acid aerosol. Animal cough counts were recorded for 5 min. Coughs can be recognized on the basis of sound associated with a rapid inspiration followed by a rapid expiration. Only the animal with cough counts >=10 times/5 min was selected for experiment. The selected animal was then randomized divided into 5 groups, n=8/group. Five days after screening test, the representative AFA-compound, EX-17 at 0, 3, 10 and 30 mg/kg were administered 30 minutes while the benchmark dextromethorphan hydrobromide (60 mg/kg, p.o.) 60 minutes prior to the citric acid inhalation, based on their PK profiles. […] The latency to the first cough has been used as an additional parameter to evaluate antitussive property.
Using the same test protocol, three more representative EX-compounds EX-128, -130 and -132 (each 30 mg/kg, p.o.) or vehicle were tested by orally administering 30 minutes while dextromethorphan hydrobromide (60 mg/kg, p.o.) 60 minutes prior to the citric acid inhalation, based on their PK profiles. […] The latencies to the first cough were increased with three compounds and the benchmark (FIG. 2B).

[5] = 30 mg/kg p.o., 30 min before citric acid
[6] = 30 mg/kg p.o., vs vehicle-treated control

Row | Compound | IC50 (IK in rat DRG) [µM] | K/T (IK in rat DRG) | inhibition of chloroquine-induced itching scratching behavior [1] | IC50 (hNav1.5) [µM] | IC50 (hiPSC INa) [µM] | inhibition of histamine-induced itching scratching behavior [2] | IC50 [3] [µM] | IC50 (hCav2.2) [µM] | IC50 (hCav3.2 Channel) [µM] | hCav3.2 Channel % Use Dep. (use dependent inhibition) (hCav3.2 Channel) [%] | IC50 (INa in rat DRG) [µM] | Na/T (INa in rat DRG) | IC50 (T current in rat DRG) [µM] | reduction of the number of cough events [4, 5] [%] | latency to the first cough [4, 6] | hERG % at 1 μM [3] [% at] | other results
1 | CC(C)(C)NC(=O)CN1CCC2(CC1)CC2NC(=O)c1cc(F)cc(Cl)c1 (stereo not drawn) [AFA-279] | > 100 | >1115 | did not produce anti-itching effects | 76.4 | 83.5 | did not produce anti-itching effects | 6.7 | > 10 | 0.113 | 21.3 | > 100 | >1115 | 0.19 | 39.1 | trend of increasing the latency, but not reaching significant difference |  | 
2 | COc1ccc2c(c1)[C@]13CCCC[C@@H]1[C@H](C2)N(C)CC3 [dextromethorphan, reference compound] |  |  |  |  |  |  |  |  |  |  |  |  |  |  |  |  | reduction of the number of cough events ([4]; 60 mg/kg p.o., 60 min before citric acid): 40.0% and 42.6%; latency to the first cough ([4]; 60 mg/kg p.o., vs vehicle-treated control): significant increases; also recorded: trend of increasing the latency, but not reaching significant difference; latency to the first cough ([4]; 60 mg/kg p.o., vs vehicle-treated control, listed as dextromethorphan hydrobromide): reached significance
3 | C[C@H]1CN(S(=O)(=O)c2ccc(C(F)(F)F)cc2)CCN1C(=O)c1ccc2cccnc2c1 [AFA-353] | > 100 | >10 |  |  |  |  |  | 8.87 | 10.4 |  | > 100 | >10 |  |  |  | 23 | 
4 | CC(C)(C)NC(=O)CN1CCC2(CC1)CC2C(=O)Nc1cc(C(F)(F)F)cc(C(F)(F)F)c1 (stereo not drawn) [AFA-322] | > 100 | >723 |  | 23.5 | 51.6 | preferentially inhibited histamine-induced itching | 9.2 | 3.09 | 0.138 | 25.6 | 14.3 | 103 | 0.15 | 15.7 | trend of increasing the latency, but not reaching significant difference |  | 
5 | O=C(NC1CC12CCN(S(=O)(=O)c1ccc(C(F)(F)F)cc1)CC2)c1cc(C(F)(F)F)cc(C(F)(F)F)c1 (stereo not drawn) [AFA-358] | > 30 | >30 | effective; also recorded: potent and equal efficacy |  |  | effective; also recorded: potent and equal efficacy |  | 0.74 | 1.01 |  | > 30 | >30 |  |  |  | 59 | 
6 | CC(C)(C)CCN1CCC2(CC1)CC2N(CC1CC1)C(=O)c1cc(Cl)cc(Cl)c1 (stereo not drawn) [AFA-206] | 6.8 | 102 |  |  |  | preferentially inhibited histamine-induced itching |  |  | 0.067 | 8.2 | 20.3 | 303 |  |  |  | 50 | 
7 | CC(C)(C)CCN1CCC2(CC1)CC2NC(=O)Cc1cc(C(F)(F)F)cc(C(F)(F)F)c1 (stereo not drawn) [AFA-221] | ~30 | 357 | potent and equal efficacy |  |  | potent and equal efficacy |  |  | 0.084 | 28.3 | 3.6 | 43 |  |  |  | 31 | inhibition of chloroquine-induced itching scratching behavior ([1]; listed as EX-31): effective; inhibition of histamine-induced itching scratching behavior ([2]; listed as EX-31): effective; hCav2.2 % at 3 μM (hCav2.2; at 3 μM): 47% at
8 | CC(C)(C)NC(=O)CN1CCC2(CC1)CC2NC(=O)c1cc(F)cc(C(F)(F)F)c1 (stereo not drawn) [AFA-281] | > 100 | >557 | potent and equal efficacy | > 100 | 31.4 | potent and equal efficacy | 8 | > 30 | 0.179 | 13.9 | > 100 | >557 | 0.6 | 33 | trend of increasing the latency, but not reaching significant difference |  | inhibition of chloroquine-induced itching scratching behavior ([1]; listed as EX-130): effective; inhibition of histamine-induced itching scratching behavior ([2]; listed as EX-130): effective
9 | CC(C)(C)NC(=O)CN1CCC2(CC1)CC2NC(=O)c1ccc(Cl)cc1F (stereo not drawn) [EX-17] |  |  |  |  |  |  |  |  |  |  |  |  |  | 36.8 | reached significance; also recorded: significant increases |  | reduction of the number of cough events ([4]; 3 mg/kg p.o., 30 min before citric acid): 7.2%; reduction of the number of cough events ([4]; 10 mg/kg p.o., 30 min before citric acid): 23.3%; latency to the first cough ([4]; p.o., EX compounds 3-30 mg/kg, dextromethorphan 60 mg/kg): increases in the latencies of the first cough in a dose-dependent manner
